Assay results published in US20220002332A1, “SCUTELLARIN AMIDE DERIVATIVES, AND PREPARATION METHODS AND USES THEREOF” (HEILONGJIANG BAYI AGRICULTURAL UNIVERSITY, priority 2020, published 2022).

What was measured:
Assay type in all cases: cell-based
[1] = system: human promyelocytic leukemia cell line HL-60; assay: Cell inhibitory activity (CCK-8 anti-proliferative) on HL-60; conditions: HL-60 cells, 72 hours with drug, CCK-8, 450 nm
Method: (§1) Cell lines: human promyelocytic leukemia cell line HL-60, human acute leukemia mononuclear macrophage cell line THP-1, human liver cancer cell line HepG-2
(§2) Test Method for Cell Inhibitory Activity
(§3) Cells are routinely cultured in an incubator at 37° C. and 5% CO2 saturated humidity. The culture medium is RPMI1640 cell culture medium containing 10% of heat-inactivated fetal bovine serum, 100 U/mL of penicillin and 100 U/mL of streptomycin. The culture medium is replaced after 48 hours. After the cells adhere to the wall, they are digested with 0.25% trypsin and passage.
(§4) A vial of cells in the logarithmic growth phase and in good condition is digested with a digestion solution (0.125% trypsin+0.01% EDTA); cell count is 2 to 4×10^4 cell/mL; a cell suspension is made and inoculated on a 96-well plate, 100 μL/well, and cultured in a constant temperature CO2 incubator for 24 hours. The medium is replaced; the test drug is added, 100 μL/well, and cultured for 72 hours. CCK-8 is added to a 96-well plate, 50 μL/well, and incubated in an incubator for 4 hours. The supernatant is aspirated; DMSO is added, 200 μL/well, and shaken on a plate shaker for 10 minutes.

[2] = system: human acute leukemia mononuclear macrophage cell line THP-1; assay: Cell inhibitory activity (CCK-8 anti-proliferative) on THP-1; conditions: THP-1 cells, 72 hours with drug, CCK-8, 450 nm
Method: as §1, §2, §3, §4

[3] = system: human liver cancer cell line HepG-2; assay: Cell inhibitory activity (CCK-8 anti-proliferative) on HepG-2; conditions: HepG2, HepG-2 cells, 72 hours with drug, CCK-8, 450 nm
Method: as §1, §2, §3, §4

SMILES | IC50 [1] | IC50 [2] | IC50 [3]
O=C(Nc1ccccc1)C1OC(Oc2cc3oc(-c4ccc(OCc5ccccc5)cc4)cc(=O)c3c(O)c2OCc2ccccc2)C(O)C(O)C1O (stereo not drawn) [Example 5] | 20 ± 0.19 µM | 35.37 ± 0.23 µM | 45.7 ± 2.15 µM
O=C(Nc1ccc(Cl)cc1)C1OC(Oc2cc3oc(-c4ccc(OCc5ccccc5)cc4)cc(=O)c3c(O)c2OCc2ccccc2)C(O)C(O)C1O (stereo not drawn) [Example 6] | 75.88 ± 0.31 µM | 81.36 ± 0.35 µM | 51.6 ± 0.97 µM
O=C(Nc1cccc(Cl)c1)C1OC(Oc2cc3oc(-c4ccc(OCc5ccccc5)cc4)cc(=O)c3c(O)c2OCc2ccccc2)C(O)C(O)C1O (stereo not drawn) [Example 7] | 15.43 ± 0.11 µM | 13.67 ± 0.13 µM | 11.2 ± 1.07 µM
Cc1cccc(NC(=O)C2OC(Oc3cc4oc(-c5ccc(OCc6ccccc6)cc5)cc(=O)c4c(O)c3OCc3ccccc3)C(O)C(O)C2O)c1 (stereo not drawn) [Example 8] | 11.8 ± 0.34 µM | 16.1 ± 0.57 µM | 12 ± 3.52 µM
Cc1ccccc1NC(=O)C1OC(Oc2cc3oc(-c4ccc(OCc5ccccc5)cc4)cc(=O)c3c(O)c2OCc2ccccc2)C(O)C(O)C1O (stereo not drawn) [Example 9] | 27.53 ± 0.15 µM | 26.8 ± 0.32 µM | 19.4 ± 1.11 µM
Cc1ccc(NC(=O)C2OC(Oc3cc4oc(-c5ccc(OCc6ccccc6)cc5)cc(=O)c4c(O)c3OCc3ccccc3)C(O)C(O)C2O)cc1 (stereo not drawn) [Example 10] | 13 ± 0.28 µM | 5.75 ± 0.36 µM | 7.23 ± 0.31 µM
O=C(Nc1ccccc1O)C1OC(Oc2cc3oc(-c4ccc(OCc5ccccc5)cc4)cc(=O)c3c(O)c2OCc2ccccc2)C(O)C(O)C1O (stereo not drawn) [Example 11] | 2.91 ± 0.69 µM | 6.11 ± 0.97 µM | 5.11 ± 0.43 µM
O=C(Nc1ccc(O)cc1)C1OC(Oc2cc3oc(-c4ccc(OCc5ccccc5)cc4)cc(=O)c3c(O)c2OCc2ccccc2)C(O)C(O)C1O (stereo not drawn) [Example 12] | 58.9 ± 0.97 µM | 33.9 ± 0.78 µM | 36.1 ± 0.67 µM
COc1ccc(NC(=O)C2OC(Oc3cc4oc(-c5ccc(OCc6ccccc6)cc5)cc(=O)c4c(O)c3OCc3ccccc3)C(O)C(O)C2O)cc1 (stereo not drawn) [Example 13] | 20.9 ± 0.46 µM | 26.3 ± 0.94 µM | 23.9 ± 0.88 µM
COc1ccccc1NC(=O)C1OC(Oc2cc3oc(-c4ccc(OCc5ccccc5)cc4)cc(=O)c3c(O)c2OCc2ccccc2)C(O)C(O)C1O (stereo not drawn) [Example 14] | 1.7 ± 0.11 µM | 12.5 ± 0.35 µM | 6.23 ± 2.03 µM
COc1cccc(NC(=O)C2OC(Oc3cc4oc(-c5ccc(OCc6ccccc6)cc5)cc(=O)c4c(O)c3OCc3ccccc3)C(O)C(O)C2O)c1 (stereo not drawn) [Example 15] | 4.28 ± 0.31 µM | 31.62 ± 0.25 µM | 29.2 ± 0.77 µM
CCCNC(=O)C1OC(Oc2cc3oc(-c4ccc(OCc5ccccc5)cc4)cc(=O)c3c(O)c2OCc2ccccc2)C(O)C(O)C1O (stereo not drawn) [Example 16] | 30.6 ± 0.57 µM | 22.4 ± 0.38 µM | 21 ± 0.81 µM
CC(C)NC(=O)C1OC(Oc2cc3oc(-c4ccc(OCc5ccccc5)cc4)cc(=O)c3c(O)c2OCc2ccccc2)C(O)C(O)C1O (stereo not drawn) [Example 17] | 54.1 ± 1.21 µM | 37.3 ± 0.93 µM | 39.5 ± 1.03 µM
CCCCCCNC(=O)C1OC(Oc2cc3oc(-c4ccc(OCc5ccccc5)cc4)cc(=O)c3c(O)c2OCc2ccccc2)C(O)C(O)C1O (stereo not drawn) [Example 18] | 59.1 ± 0.91 µM | 35.8 ± 1.24 µM | 46.2 ± 2.03 µM
O=C(NC1CCCCC1)C1OC(Oc2cc3oc(-c4ccc(OCc5ccccc5)cc4)cc(=O)c3c(O)c2OCc2ccccc2)C(O)C(O)C1O (stereo not drawn) [Example 19] | 58.8 ± 2.31 µM | 16.8 ± 0.19 µM | 17.6 ± 1.66 µM
COc1ccc(-c2cc(=O)c3c(O)c(OC)c(OC4OC(C(=O)Nc5ccccc5)C(O)C(O)C4O)cc3o2)cc1 (stereo not drawn) [Example 20] | 85.23 ± 0.75 µM | 63.12 ± 0.46 µM | 16.8 ± 0.19 µM

SMILES | IC50 [1] | IC50 [2] | IC50 [3]
COc1ccc(-c2cc(=O)c3c(O)c(OC)c(OC4OC(C(=O)Nc5ccc(Cl)cc5)C(O)C(O)C4O)cc3o2)cc1 (stereo not drawn) [Example 21] | 4.86 ± 0.21 µM | 4.47 ± 0.35 µM | 3.21 ± 0.75 µM
COc1ccc(-c2cc(=O)c3c(O)c(OC)c(OC4OC(C(=O)Nc5cccc(Cl)c5)C(O)C(O)C4O)cc3o2)cc1 (stereo not drawn) [Example 22] | 3.37 ± 0.22 µM | 7.02 ± 0.27 µM | 5.42 ± 0.53 µM
COc1ccc(-c2cc(=O)c3c(O)c(OC)c(OC4OC(C(=O)Nc5cccc(C)c5)C(O)C(O)C4O)cc3o2)cc1 (stereo not drawn) [Example 23] | 5.49 ± 0.16 µM | 4.62 ± 0.2 µM | 3.15 ± 0.46 µM
COc1ccc(-c2cc(=O)c3c(O)c(OC)c(OC4OC(C(=O)Nc5ccccc5C)C(O)C(O)C4O)cc3o2)cc1 (stereo not drawn) [Example 24] | 64.2 ± 3.41 µM | 27.8 ± 1.12 µM | 24.3 ± 0.92 µM
COc1ccc(-c2cc(=O)c3c(O)c(OC)c(OC4OC(C(=O)Nc5ccc(C)cc5)C(O)C(O)C4O)cc3o2)cc1 (stereo not drawn) [Example 25] | 61.7 ± 2.97 µM | 34.4 ± 1.89 µM | 39.7 ± 2.31 µM
COc1ccc(-c2cc(=O)c3c(O)c(OC)c(OC4OC(C(=O)Nc5ccccc5O)C(O)C(O)C4O)cc3o2)cc1 (stereo not drawn) [Example 26] | 15.4 ± 0.88 µM | 40.1 ± 1.57 µM | 32.1 ± 2.03 µM
COc1ccc(-c2cc(=O)c3c(O)c(OC)c(OC4OC(C(=O)Nc5ccc(O)cc5)C(O)C(O)C4O)cc3o2)cc1 (stereo not drawn) [Example 27] | 59.3 ± 2.18 µM | 89.03 ± 0.59 µM | 51.2 ± 0.87 µM
COc1ccc(NC(=O)C2OC(Oc3cc4oc(-c5ccc(OC)cc5)cc(=O)c4c(O)c3OC)C(O)C(O)C2O)cc1 (stereo not drawn) [Example 28] | 47.2 ± 2.71 µM | 53.8 ± 3.58 µM | 39.5 ± 1.03 µM
COc1ccc(-c2cc(=O)c3c(O)c(OC)c(OC4OC(C(=O)Nc5ccccc5OC)C(O)C(O)C4O)cc3o2)cc1 (stereo not drawn) [Example 29] | 53.2 ± 3.47 µM | 19.7 ± 0.89 µM | 29 ± 2.26 µM
COc1ccc(-c2cc(=O)c3c(O)c(OC)c(OC4OC(C(=O)Nc5cccc(OC)c5)C(O)C(O)C4O)cc3o2)cc1 (stereo not drawn) [Example 30] | 2.95 ± 0.31 µM | 21 ± 0.49 µM | 15 ± 0.85 µM
CCCNC(=O)C1OC(Oc2cc3oc(-c4ccc(OC)cc4)cc(=O)c3c(O)c2OC)C(O)C(O)C1O (stereo not drawn) [Example 31] | 21.8 ± 0.99 µM | 41.6 ± 1.37 µM | 33 ± 1.13 µM
COc1ccc(-c2cc(=O)c3c(O)c(OC)c(OC4OC(C(=O)NC(C)C)C(O)C(O)C4O)cc3o2)cc1 (stereo not drawn) [Example 32] | 28.2 ± 1.19 µM | 19 ± 0.36 µM | 26.6 ± 2.19 µM
CCCCCCNC(=O)C1OC(Oc2cc3oc(-c4ccc(OC)cc4)cc(=O)c3c(O)c2OC)C(O)C(O)C1O (stereo not drawn) [Example 33] | 4.21 ± 0.15 µM | 5.76 ± 0.33 µM | 3.69 ± 0.63 µM
COc1ccc(-c2cc(=O)c3c(O)c(OC)c(OC4OC(C(=O)NC5CCCCC5)C(O)C(O)C4O)cc3o2)cc1 (stereo not drawn) [Example 34] | 28.7 ± 0.54 µM | 19.1 ± 0.78 µM | 11.2 ± 0.72 µM
O=C(O)[C@H]1O[C@@H](Oc2cc3oc(-c4ccc(O)cc4)cc(=O)c3c(O)c2O)[C@H](O)[C@@H](O)[C@@H]1O [Scutellarin] | 22.7 ± 1.97 µM | 48.5 ± 2.21 µM | 56.1 ± 1.23 µM
